± gives the expanded uncertainty stated by the source.
Assay: xn = mol fraction of the nth substance listed
Details: Fluid (supercritical or subcritical phases), Buoyancy - hydrostatic balance with magnetic suspension - one sinker

With [C-]#[O+] [carbon monoxide] + N#N the mass density (250.04 K, 996.97 kPa, x1 = 0.04999) was 13.537 ± 0.017 kg/m3, the mass density (250.04 K, 1999 kPa, x1 = 0.04999) was 27.34 ± 0.033 kg/m3 and the mass density (250.04 K, 4009.9 kPa, x1 = 0.04999) was 55.503 ± 0.068 kg/m3. For the same compound, the mass density (250.04 K, 6016.9 kPa, x1 = 0.04999) was 84.044 ± 0.1 kg/m3, the mass density (250.04 K, 16000 kPa, x1 = 0.04999) was 220.89 ± 0.27 kg/m3 and the mass density (250.05 K, 969.13 kPa, x1 = 0.1002) was 13.157 ± 0.016 kg/m3. It also gave a mass density (250.05 K, 999.78 kPa, x1 = 0.1002) of 13.577 ± 0.017 kg/m3, a mass density (250.05 K, 2004.3 kPa, x1 = 0.1002) of 27.416 ± 0.034 kg/m3 and a mass density (250.05 K, 3998.8 kPa, x1 = 0.1002) of 55.373 ± 0.067 kg/m3. For the same compound, the mass density (250.05 K, 7998.5 kPa, x1 = 0.04999) was 112.326 ± 0.14 kg/m3, the mass density (250.05 K, 8999 kPa, x1 = 0.1002) was 126.622 ± 0.15 kg/m3 and the mass density (250.05 K, 9999.8 kPa, x1 = 0.04999) was 140.653 ± 0.17 kg/m3. It also gave a mass density (250.05 K, 11001 kPa, x1 = 0.1002) of 154.742 ± 0.19 kg/m3, a mass density (250.05 K, 11998 kPa, x1 = 0.04999) of 168.354 ± 0.2 kg/m3 and a mass density (250.05 K, 13033 kPa, x1 = 0.1002) of 182.506 ± 0.22 kg/m3. The mass density (250.05 K, 14004 kPa, x1 = 0.04999) was 195.251 ± 0.24 kg/m3, the mass density (250.05 K, 15003 kPa, x1 = 0.1002) was 208.407 ± 0.25 kg/m3 and the mass density (250.05 K, 17999 kPa, x1 = 0.04999) was 245.259 ± 0.3 kg/m3. The mass density (250.05 K, 18474 kPa, x1 = 0.04999) was 250.84 ± 0.3 kg/m3, the mass density (250.06 K, 3032.9 kPa, x1 = 0.1002) was 41.76 ± 0.051 kg/m3 and the mass density (250.06 K, 5043.2 kPa, x1 = 0.1002) was 70.198 ± 0.085 kg/m3. It also gave a mass density (250.06 K, 5999.3 kPa, x1 = 0.1002) of 83.836 ± 0.1 kg/m3, a mass density (250.06 K, 6999.1 kPa, x1 = 0.1002) of 98.128 ± 0.12 kg/m3 and a mass density (250.06 K, 7998.3 kPa, x1 = 0.1002) of 112.391 ± 0.14 kg/m3. For the same compound, the mass density (250.06 K, 9998.8 kPa, x1 = 0.1002) was 140.734 ± 0.17 kg/m3, the mass density (250.06 K, 11998 kPa, x1 = 0.1002) was 168.471 ± 0.2 kg/m3 and the mass density (250.06 K, 13998 kPa, x1 = 0.1002) was 195.325 ± 0.24 kg/m3. For the same compound, the mass density (250.06 K, 15999 kPa, x1 = 0.1002) was 221.035 ± 0.27 kg/m3, the mass density (250.06 K, 16706 kPa, x1 = 0.1002) was 229.835 ± 0.28 kg/m3 and the mass density (250.06 K, 18000 kPa, x1 = 0.1002) was 245.432 ± 0.3 kg/m3. For the same compound, the mass density (250.06 K, 19962 kPa, x1 = 0.1002) was 268.002 ± 0.33 kg/m3, the mass density (275.01 K, 997.91 kPa, x1 = 0.1002) was 12.276 ± 0.015 kg/m3 and the mass density (275.01 K, 1984.4 kPa, x1 = 0.1002) was 24.502 ± 0.03 kg/m3. It also gave a mass density (275.01 K, 3998.5 kPa, x1 = 0.1002) of 49.641 ± 0.061 kg/m3, a mass density (275.01 K, 5998.9 kPa, x1 = 0.1002) of 74.708 ± 0.091 kg/m3 and a mass density (275.01 K, 7999.4 kPa, x1 = 0.1002) of 99.667 ± 0.12 kg/m3. The mass density (275.02 K, 990.79 kPa, x1 = 0.04999) was 12.187 ± 0.015 kg/m3, the mass density (275.02 K, 1996 kPa, x1 = 0.04999) was 24.643 ± 0.03 kg/m3 and the mass density (275.02 K, 4000.1 kPa, x1 = 0.04999) was 49.643 ± 0.061 kg/m3. It also gave a mass density (275.02 K, 9999.5 kPa, x1 = 0.1002) of 124.305 ± 0.15 kg/m3, a mass density (275.02 K, 11999 kPa, x1 = 0.04999) of 148.339 ± 0.18 kg/m3 and a mass density (275.02 K, 12004 kPa, x1 = 0.1002) of 148.483 ± 0.18 kg/m3. It also gave a mass density (275.02 K, 13997 kPa, x1 = 0.04999) of 171.74 ± 0.21 kg/m3, a mass density (275.02 K, 14001 kPa, x1 = 0.1002) of 171.88 ± 0.21 kg/m3 and a mass density (275.02 K, 15997 kPa, x1 = 0.04999) of 194.336 ± 0.24 kg/m3. It also gave a mass density (275.02 K, 15998 kPa, x1 = 0.1002) of 194.459 ± 0.24 kg/m3, a mass density (275.02 K, 17997 kPa, x1 = 0.1002) of 216.135 ± 0.26 kg/m3 and a mass density (275.02 K, 18198 kPa, x1 = 0.04999) of 218.123 ± 0.27 kg/m3. The mass density (275.02 K, 19888 kPa, x1 = 0.1002) was 235.72 ± 0.29 kg/m3, the mass density (275.02 K, 19917 kPa, x1 = 0.04999) was 235.882 ± 0.29 kg/m3 and the mass density (275.03 K, 6038.6 kPa, x1 = 0.04999) was 75.17 ± 0.091 kg/m3. The mass density (275.03 K, 8036.6 kPa, x1 = 0.04999) was 100.073 ± 0.12 kg/m3 and the mass density (275.03 K, 10062 kPa, x1 = 0.04999) was 124.995 ± 0.15 kg/m3.

Source: the NIST ThermoML archive (doi:10.1021/je2007764)
